Measured values taken from US6995185B2, “Δ1-pyrrolines used as pesticides” (Bayer Cropscience AG, priority 2000, dated 2006).

What was measured:
[1] = test system: caterpillars of the army worm (Spodoptera frugiperda); assay: Spodoptera frugiperda test; format: in vivo; conditions: 1000 ppm, cabbage leaves (Brassica oleracea) dipped
Experimental: (§1) Spodoptera frugiperda Test • Solvent: 30 parts by weight of dimethylformamide • Emulsifier: 1 part by weight of alkylaryl polyglycol ether To produce a suitable preparation of active compound, 1 part by weight of active compound is mixed with the stated amounts of solvent and emulsifier, and the concentrate is diluted with emulsifier-containing water to the desired concentration. Cabbage leaves (Brassica oleracea) are treated by being dipped into the preparation of active compound of the desired concentration and are populated with caterpillars of the army worm (Spodoptera frugiperda) while the leaves are still moist. After the desired period of time, the kill in % is determined. 100% means that all caterpillars have been killed; 0% means that none of the caterpillars have been killed.

[2] = log P determination by HPLC on reversed-phase column (C 18), EEC directive 79/831 Annex V.A8; format: physicochemical; conditions: reversed-phase HPLC column (C 18), pH 2.3, pH 2.3 (marked a), 0.1% aqueous phosphoric acid/acetonitrile, 43° C.
Experimental: The log P values given in the tables and Preparation Examples above are determined in accordance with EEC directive 79/831 Annex V.A8 by HPLC (High Performance Liquid Chromatography) using a reversed-phase column (C 18). Temperature: 43° C. In the acidic range, the determination is carried out at pH 2.3 using the mobile phases 0.1% aqueous phosphoric acid and acetonitrile; linear gradient from 10% acetonitrile to 90% acetonitrile (marked^a) in the table). In the neutral range, the determination is carried out at pH 7.5 using the mobile phases 0.01-molar aqueous phosphate buffer solution and acetonitrile; linear gradient from 10% acetonitrile to 90% acetonitrile (marked^b) in the table). Calibration is carried out using unbranched alkan-2-ones (having 3 to 16 carbon atoms) with known log P values (determination of the log P values by the retention times using linear interpolation between two successive alkanones).

Liriomyza trifolii = assay: Liriomyza test; format: in vivo; conditions: 1000 ppm, bean plants (Phaseolus vulgaris) dipped
Experimental: Liriomyza Test • Solvent: 3 parts by weight of dimethylformamide • Emulsifier: 1 part by weight of alkylaryl polyglycol ether To produce a suitable preparation of active compound, 1 part by weight of active compound is mixed with the stated amounts of solvent and emulsifier, and the concentrate is diluted with emulsifier-containing water to the desired concentration. Bean plants (Phaseolus vulgaris) which are infested by eggs and development stages of […] (Liriomyza trifolii) are dipped into a preparation of active compound of the desired concentration. After the desired period of time, the effect in % is determined. 100% means that all […] have been killed; 0% means that none of the […] have been killed.

Meloidogyne icognita = assay: Meloidogyne test; format: in vivo; conditions: 20 ppm, lettuce in sand, nematicidal action by formation of galls
Experimental: Meloidogyne Test • Solvent: 30 parts by weight of dimethylformamide • Emulsifier: 1 part by weight of alkylaryl polyglycol ether To produce a suitable preparation of active compound, 1 part by weight of active compound is mixed with the stated amounts of solvent and emulsifier, and the concentrate is diluted with emulsifier-containing water to the desired concentration. Vessels are filled with sand, solution of active compound, Meloidogyne icognita egg/larvae suspension and lettuce seeds. The lettuce seeds germinate and the plants develop. On the roots, galls develop. After the desired period of time, the nematicidal action is determined in % by the formation of galls. 100% means that no galls have been found; 0% means that the number of galls on the treated plants corresponds to that of the untreated control.

[3] = test system: larvae of the mustard beetle (Phaedon cochloeariae); assay: Phaedon larvae test; format: in vivo; conditions: 1000 ppm, cabbage leaves (Brassica oleracea) dipped
Experimental: as §1, with “Phaedon larvae Test” for “Spodoptera frugiperda Test”, “with larvae” for “with caterpillars”, “the mustard beetle (Phaedon cochloeariae)” for “the army worm (Spodoptera frugiperda)”, “all beetle larvae” for “all caterpillars”, “the beetle larvae” for “the caterpillars”

With `N#CC1CC(c2ccccc2Cl)=NC1c1ccc(-c2ccc(OC(F)(F)F)cc2)cc1` (stereo not shown) the “Kill rate in % after 7 days” value [1] was 100%.

In the case of `CC(C)c1ccc(-c2ccc(C3N=C(c4ccccc4Cl)CC3C#N)cc2)cc1` (stereo not shown), the “Kill rate in % after 7 days” value [1] is reported as 100%.

For `CCCCN(C)C(=O)[C@H]1CC(c2c(F)cccc2F)=NC1c1ccc(-c2ccc(OC(F)(F)F)cc2)cc1` (stereo partly shown) [Example 70], the chromatographic logP [2] was 4.56.

In the case of `CCCCCN(C)C(=O)[C@H]1CC(c2c(F)cccc2F)=NC1c1ccc(-c2ccc(OC(F)(F)F)cc2)cc1` (stereo partly shown) [Example 71], the chromatographic logP [2] is reported as 4.92.

For `CCN(CC)C(=O)[C@H]1CC(c2c(F)cccc2F)=NC1c1ccc(-c2ccc(OC(F)(F)F)cc2)cc1` (stereo partly shown) [Example 72], the chromatographic logP [2] was 4.18.

For `CCCN(CCC)C(=O)[C@H]1CC(c2c(F)cccc2F)=NC1c1ccc(-c2ccc(OC(F)(F)F)cc2)cc1` (stereo partly shown) [Example 73], the chromatographic logP [2] was 4.92.

`CCCCN(CCCC)C(=O)[C@H]1CC(c2c(F)cccc2F)=NC1c1ccc(-c2ccc(OC(F)(F)F)cc2)cc1` (stereo partly shown) [Example 74] showed a chromatographic logP [2] of 5.65.

Compound `CCCCCN(CCCCC)C(=O)[C@H]1CC(c2c(F)cccc2F)=NC1c1ccc(-c2ccc(OC(F)(F)F)cc2)cc1` (stereo partly shown) [Example 75] has a chromatographic logP [2] of 6.43.

In the case of `O=C([C@H]1CC(c2c(F)cccc2F)=NC1c1ccc(-c2ccc(OC(F)(F)F)cc2)cc1)N1CCCC1` (stereo partly shown) [Example 76], the chromatographic logP [2] is reported as 3.82.

Compound `O=C([C@H]1CC(c2c(F)cccc2F)=NC1c1ccc(-c2ccc(OC(F)(F)F)cc2)cc1)N1CCCCC1` (stereo partly shown) [Example 77] has a chromatographic logP [2] of 4.32.

`O=C(NCc1ccccc1)[C@H]1CC(c2c(F)cccc2F)=NC1c1ccc(-c2ccc(OC(F)(F)F)cc2)cc1` (stereo partly shown) [Example 78] showed a chromatographic logP [2] of 3.94.

Compound `O=C(NCc1ccccc1Cl)[C@H]1CC(c2c(F)cccc2F)=NC1c1ccc(-c2ccc(OC(F)(F)F)cc2)cc1` (stereo partly shown) [Example 79] has a chromatographic logP [2] of 4.46.

Compound `O=C(NCc1cccc(Cl)c1)[C@H]1CC(c2c(F)cccc2F)=NC1c1ccc(-c2ccc(OC(F)(F)F)cc2)cc1` (stereo partly shown) [Example 80] has a chromatographic logP [2] of 4.46.

With `O=C(NCc1ccc(Cl)cc1)[C@H]1CC(c2c(F)cccc2F)=NC1c1ccc(-c2ccc(OC(F)(F)F)cc2)cc1` (stereo partly shown) [Example 81] the chromatographic logP [2] was 4.41.

With `O=C(NCC1CCCCC1)[C@H]1CC(c2c(F)cccc2F)=NC1c1ccc(-c2ccc(OC(F)(F)F)cc2)cc1` (stereo partly shown) [Example 82] the chromatographic logP [2] was 4.67.

Compound `O=C(NCC1CCCO1)[C@H]1CC(c2c(F)cccc2F)=NC1c1ccc(-c2ccc(OC(F)(F)F)cc2)cc1` (stereo partly shown) [Example 83] has a chromatographic logP [2] of 3.48.

`COCCNC(=O)[C@H]1CC(c2c(F)cccc2F)=NC1c1ccc(-c2ccc(OC(F)(F)F)cc2)cc1` (stereo partly shown) [Example 84] showed a chromatographic logP [2] of 3.33.

Compound `O=C(NCc1cccs1)[C@H]1CC(c2c(F)cccc2F)=NC1c1ccc(-c2ccc(OC(F)(F)F)cc2)cc1` (stereo partly shown) [Example 85] has a chromatographic logP [2] of 4.03.

Compound `O=C(NCC(F)(F)F)[C@H]1CC(c2c(F)cccc2F)=NC1c1ccc(-c2ccc(OC(F)(F)F)cc2)cc1` (stereo partly shown) [Example 86] has a chromatographic logP [2] of 3.94.

Work on `O=C(Nc1nccs1)[C@H]1CC(c2c(F)cccc2F)=NC1c1ccc(-c2ccc(OC(F)(F)F)cc2)cc1` (stereo partly shown) [Example 87] yielded a chromatographic logP [2] of 3.78.

For `COC(=O)c1cnc(NC(=O)[C@H]2CC(c3c(F)cccc3F)=NC2c2ccc(-c3ccc(OC(F)(F)F)cc3)cc2)s1` (stereo partly shown) [Example 88], the chromatographic logP [2] was 3.94.

In the case of `O=C(NC1CCC(C(F)(F)F)CC1)[C@H]1CC(c2c(F)cccc2F)=NC1c1ccc(-c2ccc(OC(F)(F)F)cc2)cc1` (stereo partly shown) [Example 89], the chromatographic logP [2] is reported as 4.46.

With `O=C([C@H]1CC(c2c(F)cccc2F)=NC1c1ccc(-c2ccc(OC(F)(F)F)cc2)cc1)N1CCOCC1` (stereo partly shown) [Example 90] the chromatographic logP [2] was 3.49.

Compound `Cc1ccc(CNC(=O)[C@H]2CC(c3c(F)cccc3F)=NC2c2ccc(-c3ccc(OC(F)(F)F)cc3)cc2)cc1` (stereo partly shown) [Example 91] has a chromatographic logP [2] of 4.37.

In the case of `O=C(Nc1ccc(OC(F)(F)F)cc1)[C@H]1CC(c2c(F)cccc2F)=NC1c1ccc(-c2ccc(OC(F)(F)F)cc2)cc1` (stereo partly shown) [Example 92], the chromatographic logP [2] is reported as 4.87.

With `O=C(NCc1ccc(Cl)cc1Cl)[C@H]1CC(c2c(F)cccc2F)=NC1c1ccc(-c2ccc(OC(F)(F)F)cc2)cc1` (stereo partly shown) [Example 93] the chromatographic logP [2] was 4.87.

`COc1ccccc1CNC(=O)[C@H]1CC(c2c(F)cccc2F)=NC1c1ccc(-c2ccc(OC(F)(F)F)cc2)cc1` (stereo partly shown) [Example 94] gave a chromatographic logP [2] of 4.18.

In the case of `COc1cccc(CNC(=O)[C@H]2CC(c3c(F)cccc3F)=NC2c2ccc(-c3ccc(OC(F)(F)F)cc3)cc2)c1OC` (stereo partly shown) [Example 95], the chromatographic logP [2] is reported as 4.03.

`Cc1cc(C)cc(CNC(=O)[C@H]2CC(c3c(F)cccc3F)=NC2c2ccc(-c3ccc(OC(F)(F)F)cc3)cc2)c1` (stereo partly shown) [Example 96] showed a chromatographic logP [2] of 4.72.

With `O=C(NCc1ccc(F)cc1F)[C@H]1CC(c2c(F)cccc2F)=NC1c1ccc(-c2ccc(OC(F)(F)F)cc2)cc1` (stereo partly shown) [Example 97] the chromatographic logP [2] was 4.23.

For `Cc1cccc(CNC(=O)[C@H]2CC(c3c(F)cccc3F)=NC2c2ccc(-c3ccc(OC(F)(F)F)cc3)cc2)c1` (stereo partly shown) [Example 98], the chromatographic logP [2] was 4.41.

For `COC(=O)C1CC(c2c(F)cccc2F)=NC1c1ccc(-c2ccc(OC(F)(F)F)cc2)cc1` (stereo not shown) [drawing 145], the “Kill rate in % after 7 days” value (Liriomyza trifolii) was 100%.

In the case of `COC(=O)C1CC(c2c(F)cccc2F)=NC1c1ccc(-c2ccc(OC(F)(F)F)cc2)cc1` (stereo not shown) [drawing 146], the “Kill rate in % after 14 days” value (Meloidogyne icognita) is reported as 100%.

For `N#CC1CC(c2c(F)cccc2F)=NC1c1ccc(-c2ccc(OC(F)(F)F)cc2)cc1` (stereo not shown) [drawing 147], the “Kill rate in % after 14 days” value (Meloidogyne icognita) was 90%.

In the case of `COC(=O)C1CC(c2c(F)cccc2F)=NC1c1ccc(-c2ccc(OC(F)(F)F)cc2)cc1` (stereo not shown) [drawing 148], the “Kill rate in % after 7 days” value [3] is reported as 100%.

In the case of `N#CC1CC(c2c(F)cccc2F)=NC1c1ccc(-c2ccc(OC(F)(F)F)cc2)cc1` (stereo not shown) [drawing 149], the “Kill rate in % after 7 days” value [3] is reported as 100%.

In the case of `COC(=O)C1CC(c2ccccc2Cl)=NC1c1ccc(-c2ccc(OC(F)(F)F)cc2)cc1` (stereo not shown) [drawing 150], the “Kill rate in % after 7 days” value [3] is reported as 100%.

With `COC(=O)C1CC(c2c(F)cccc2F)=NC1c1ccc(-c2ccc(OC(F)(F)F)cc2)cc1` (stereo not shown) [drawing 151] the “Kill rate in % after 7 days” value [1] was 100%.

In the case of `COC(=O)C1CC(c2ccccc2Cl)=NC1c1ccc(-c2ccc(OC(F)(F)F)cc2)cc1` (stereo not shown) [drawing 152], the “Kill rate in % after 7 days” value [1] is reported as 100%.

In the case of `N#CC1CC(c2c(F)cccc2F)=NC1c1ccc(-c2ccc(OC(F)(F)F)cc2)cc1` (stereo not shown) [drawing 154], the “Kill rate in % after 7 days” value [1] is reported as 100%.
